According to paper PMC5651845, “A New Generation of Arachidonic Acid Analogues as Potential Neurological Agent Targeting Cytosolic Phospholipase A2” (Scientific Reports, 2017):

Target: T1, recombinant cPLA2 (Homo sapiens, UniProt P47712)
T1 construct: purchased US Biological P4074-03R
T1 sequence (P47712 1-749): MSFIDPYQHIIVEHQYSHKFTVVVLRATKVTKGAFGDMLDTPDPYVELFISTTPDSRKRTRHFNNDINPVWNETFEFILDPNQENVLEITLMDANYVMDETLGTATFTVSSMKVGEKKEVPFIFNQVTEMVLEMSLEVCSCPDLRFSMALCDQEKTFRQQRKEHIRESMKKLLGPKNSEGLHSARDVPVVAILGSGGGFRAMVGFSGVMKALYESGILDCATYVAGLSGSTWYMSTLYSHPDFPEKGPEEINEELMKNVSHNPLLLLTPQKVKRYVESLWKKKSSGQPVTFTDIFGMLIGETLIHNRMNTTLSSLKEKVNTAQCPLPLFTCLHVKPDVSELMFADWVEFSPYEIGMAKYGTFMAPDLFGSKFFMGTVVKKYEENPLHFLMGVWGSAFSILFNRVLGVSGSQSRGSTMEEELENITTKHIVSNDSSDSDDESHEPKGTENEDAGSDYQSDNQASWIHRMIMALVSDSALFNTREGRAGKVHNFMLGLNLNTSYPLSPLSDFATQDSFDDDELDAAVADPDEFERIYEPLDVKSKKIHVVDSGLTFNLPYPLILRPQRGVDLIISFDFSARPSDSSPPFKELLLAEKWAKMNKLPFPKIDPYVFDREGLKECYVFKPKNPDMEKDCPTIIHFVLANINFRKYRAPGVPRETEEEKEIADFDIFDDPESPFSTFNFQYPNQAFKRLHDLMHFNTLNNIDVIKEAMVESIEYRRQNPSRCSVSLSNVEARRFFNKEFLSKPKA
Assay: EnzChek phospholipase A2 fluorogenic assay (% activity) at 10 μM
Type: biochemical
Settings: 10 μM compound; for remaining activity at 10 µM: 1 h, room temperature
Experimental: The compounds were evaluated with a fluorogenic PLA2 assay kit (EnzChek® Phospholipase A2 Assay Kit, Catalog No: E10217) at a standard 10 μM concentration. Potential inhibitors were determined by their ability to lower cPLA2 activity to a greater extent than 1a.
The assay was conducted according to the manufacturer’s instruction (E10217, Molecular Probes) with slight modification. Briefly, substrate solution was separately prepared by mixing 5 μL of DOPG, 5 μL of DOPC and 5 μL of substrate respectively in 1.5 mL of 1X phospholipase A2 reaction buffer. The mixture was vortexed vigorously for 3 min before allowing to stand at room temperature for 1 h. 48 μL of 1X phospholipase A2 reaction buffer were added into each well of a 96-wells plate. This was followed by addition of 1 μL of recombinant cPLA2 (P4074-03R, US Biological) and 1 μL of 1 mM of the respective compound dissolved in DMSO. The final concentration of the test compound achieved is 10 μM. The reaction was initiated by adding 50 μL of the substrate solution and incubating at room temperature for 1 h. Fluorescence was measured using a Varioskan plate reader (Thermo Scientific, MA, USA) by exciting at 485 nm, while fluorescence emission was detected at 515 nm. Positive control was performed when 1 μL of test compound was replaced by vehicle DMSO. % activity was expressed as the mean value of duplicate wells from three experiments. % activity was calculated by the following formula1 %activity=fluorescenceoftestedwell−background/fluorescenceofpostivecontrol−background

CCCCC/C=C\C/C=C\C/C=C\C/C=C\CCCC(N)=O [1m, (5Z,8Z,11Z,14Z)-icosa-5,8,11,14-tetraenamide]
inhibition at 10 µM: 39.3% | remaining activity at 10 µM: 60.7 ± 1.9%

CCCCC/C=C\C/C=C\C/C=C\C/C=C\CCCC(=O)Nc1ccccc1C(=O)O [2o]
inhibition at 10 µM: 34.5% | remaining activity at 10 µM: 65.5 ± 4%

CCCCC/C=C\C/C=C\C/C=C\C/C=C\CCCC(=O)Nc1cccc(C(=O)O)c1 [2d]
inhibition at 10 µM: 86.8% | remaining activity at 10 µM: 13.2 ± 1.2%

CCCCC/C=C\C/C=C\C/C=C\C/C=C\CCCC(=O)C(F)(F)Cl [1n]
inhibition at 10 µM: 50.8% | remaining activity at 10 µM: 49.2 ± 4.5%

CCCCC/C=C\C/C=C\C/C=C\C/C=C\CCCC(=O)NCc1ccc(C(=O)O)cc1 [2e]
inhibition at 10 µM: 74.2% | remaining activity at 10 µM: 25.8 ± 0.1%

CCCCC/C=C\C/C=C\C/C=C\C/C=C\CCCC(=O)Nc1ccc(C(=O)O)cc1 [2n]
inhibition at 10 µM: 66.7% | remaining activity at 10 µM: 33.3 ± 0.9%

O=C(CCC/C=C\C/C=C\C/C=C\C/C=C\c1ccccc1)C(F)(F)F [1d]
inhibition at 10 µM: 68.2% | remaining activity at 10 µM: 31.8 ± 2%

CCCCC/C=C\C/C=C\C/C=C\C/C=C\CCCC(=O)C(F)F [1o]
inhibition at 10 µM: 59.8% | remaining activity at 10 µM: 40.2 ± 0.5%

CCCCC/C=C\C/C=C\C/C=C\C/C=C\CCCC(=O)NCCCC(=O)O [2a]
inhibition at 10 µM: 60.3% | remaining activity at 10 µM: 39.7 ± 2.6%

CCCCCCCC/C=C\C/C=C\C/C=C\C/C=C\CCCC(=O)C(F)(F)F [1c]
inhibition at 10 µM: 55% | remaining activity at 10 µM: 45 ± 3.5%

CCCCC/C=C\C/C=C\C/C=C\C/C=C\CCCC(=O)NCCCCCC(=O)OC [20c]
inhibition at 10 µM: 15.2% | remaining activity at 10 µM: 84.8 ± 1%

CCC/C=C\C/C=C\C/C=C\C/C=C\CCCC(=O)C(F)(F)F [1b]
inhibition at 10 µM: 63% | remaining activity at 10 µM: 37 ± 3.9%

CCCCC/C=C\C/C=C\C/C=C\C/C=C\CCCC(=O)Nc1cccc(S(N)(=O)=O)c1 [2p, (5Z,8Z,11Z,14Z)-N-(3-sulfamoylphenyl)icosa-5,8,11,14-tetraenamide]
inhibition at 10 µM: 46.1% | remaining activity at 10 µM: 53.9 ± 2.7%

CCCCCC/C=C\C/C=C\C/C=C\C/C=C\CCC(=O)C(F)(F)F [1e]
inhibition at 10 µM: 59.5% | remaining activity at 10 µM: 40.5 ± 3.6%

CCCCC/C=C\C/C=C\C/C=C\C/C=C\CCCC(=O)NCCCCC(=O)O [2b]
inhibition at 10 µM: 73.3% | remaining activity at 10 µM: 26.7 ± 0.1%

CCCCC/C=C\C/C=C\C/C=C\C/C=C\CCCC(=O)NCCCCCC(=O)O [2c]
inhibition at 10 µM: 59.1% | remaining activity at 10 µM: 40.9 ± 1.1%

CCCCC/C=C\C/C=C\C/C=C\C/C=C\CCCC(=O)Nc1cccc(C(N)=O)c1 [2m]
inhibition at 10 µM: 42.5% | remaining activity at 10 µM: 57.5 ± 1.4%

CCCCC/C=C\C/C=C\C/C=C\C/C=C\CCCC(=O)NCc1cccc(C(=O)O)c1 [2f]
inhibition at 10 µM: 64.4% | remaining activity at 10 µM: 35.6 ± 2.1%

CCCCC/C=C\C/C=C\C/C=C\C/C=C\CCCC(=O)Nc1ccc(C(N)=O)cc1 [2l]
inhibition at 10 µM: 32.6% | remaining activity at 10 µM: 67.4 ± 5.7%

CCC/C=C\C/C=C\C/C=C\C/C=C\CCCCC(=O)NCCCCC(=O)O [2h]
inhibition at 10 µM: 56.4% | remaining activity at 10 µM: 43.6 ± 0.2%

CCCCC/C=C\C/C=C\C/C=C\C/C=C\CCCCCC(=O)NCCCCC(=O)O [2k]
inhibition at 10 µM: 62.3% | remaining activity at 10 µM: 37.7 ± 1.5%

CCC/C=C\C/C=C\C/C=C\C/C=C\CCCCC(=O)Nc1cccc(C(=O)O)c1 [2j]
inhibition at 10 µM: 83.5% | remaining activity at 10 µM: 16.5 ± 1.2%
